# Reference: ChEMBL document CHEMBL4007391, “Tackling Fungal Resistance by Biofilm Inhibitors” (J Med Chem, 2017)
# Tested on: Candida albicans
# Assay: Disruption of biofilm of Candida albicans DAY185 assessed as death of biofilm hyphae after 24 hrs by XTT assay
# Assay type: functional
structure (smiles),measurement,value
C=C(C)[C@H](CC=C(C)C)C[C@]12C[C@H](CC=C(C)C)C(C)(C)[C@](CC=C(C)C)(C(=O)C(C(=O)c3ccc(O)c(O)c3)=C1O)C2=O,EC50,30 to 50 µM
